The results in this text go back to patent publication US20250170130A1, “MODULATORS OF MYC FAMILY PROTO-ONCOGENE PROTEIN” (Nalo Therapeutics, priority 2022, published 2025).

For assay [1], the target named is T1, MycN (Homo sapiens, UniProt P04198).
T1 construct: endogenous in cells; host or cells: SK-N-BE(2)
T1 sequence (P04198 1-464): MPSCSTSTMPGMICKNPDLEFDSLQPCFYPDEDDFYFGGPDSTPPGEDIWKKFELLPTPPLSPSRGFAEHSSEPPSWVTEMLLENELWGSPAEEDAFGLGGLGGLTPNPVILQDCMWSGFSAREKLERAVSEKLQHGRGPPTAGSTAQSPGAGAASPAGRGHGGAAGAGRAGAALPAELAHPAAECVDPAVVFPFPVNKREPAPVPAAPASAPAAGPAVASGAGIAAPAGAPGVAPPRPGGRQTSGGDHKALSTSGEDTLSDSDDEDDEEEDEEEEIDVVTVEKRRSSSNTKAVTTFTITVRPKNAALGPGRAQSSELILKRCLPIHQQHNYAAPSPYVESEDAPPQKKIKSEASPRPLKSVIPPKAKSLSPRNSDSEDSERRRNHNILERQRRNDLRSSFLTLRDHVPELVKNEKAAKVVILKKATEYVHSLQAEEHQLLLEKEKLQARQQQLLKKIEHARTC
Put plainly: Degradation of MycN protein in SK-N-BE(2) cells, JESS/Western blot of lysates. The settings on record: SKNBE2, 24 h, SKNBE2 cells, 24 h; for Dmax at 0.5 µM: read-out: % Degradation of MycN (SKNBE2) 24 h, 0.5 μM; for Dmax at 1 µM: read-out: % Degradation of MycN (SKNBE2) 24 h, 1 μM; for Dmax at 3 µM: read-out: % Degradation of MycN (SKNBE2) 24 h, 3 μM; for Dmax at 6 µM: read-out: % Degradation of MycN (SKNBE2) 24 h, 6 μM. It counts as cell-based. As to the method:
(§1) For L363 cells (suspension), 1E6 cells were plated into each well of a 6 well plate. For SK-N-BE(2) cells (adherent), 5E5 cells were plated into each well of a 6 well dish. Cells were cultured for 24 hrs then treated with exemplary compounds at 0.1, 0.5, 1.0, 3.0 and 6.0 mM final assay concentrations plus DMSO control. All compounds were diluted to 10 mM in DMSO. Cells were treated with the compound for 24 hrs, then for both cell types, media containing cells were removed from wells into a 15 ml centrifuge tube, and remaining adherent SK-N-BE(2) cells were also scraped from the wells into the appropriate tubes. Tubes were centrifuged, cells were washed with PBS then re-centrifuged to pellet cells. A RIPA buffer cocktail was added to the cells on ice for 5 mins. Cell lysates were clarified by centrifugation and stored at −80 degrees until required. BCA assay was performed on each lysate to determine the protein concentration.
(§2) Once an appropriate lysate concentration and antibody concentration was determined, samples were screened in the JESS technology (Protein Simple, San Jose, CA—https://www.proteinsimple.com/jess.html).
(§3) Target protein antibodies (n-myc and c-myc) were detected in the chemi-luminescence channel and loading controls (tubulin and GAPDH) were detected using a Near Infra Red (NIR) labeled secondary antibody.
For SK-N-EB2 adherent cells, 5E5 cells in 1.9 mls media were plated into 6 well dishes and incubated for 24 hrs. Exemplary compounds were added (100 ul, 1 in 20 dilution in media) to each well (final assay concentration 6, 3, 1 and […]) together with DMSO control wells and incubated for 24 hrs. Cells were scrapped off the plate, centrifuged, washed with PBS, centrifuged, then a RIPA buffer cocktail added to the cells (100 ul), centrifuged and stored at −80 for later analysis. For L363 suspension cells, 1E6 cells were plated into 24 well dishes (950 ul media) and incubated for 24 hrs. Exemplary compounds were added (50 ul, 1 in 20 dilution in media) to each well (final assay concentration 6, 3, 1 and […]) together with DMSO control wells and incubated for 24 hrs. Cells were aspirated into tubes, centrifuged, washed with PBS, centrifuged, then a RIPA buffer cocktail added to the cells (100 ul), centrifuged and stored at −80 for later analysis.
(§4) For Western blot, a BCA (total protein) assay was run on all samples, these were then run in batches of 5 compounds plus control (DMSO) on each Western blot run—n-myc and c-myc were run in separate experiments in the chemiluminescence channel. Both tubulin and GAPDH were run as loading controls in all lanes in the near infra red channel.
For orientation: In western blotting, separated proteins are transferred to a membrane and probed.

In assay [2] the target is T2, MycC (Homo sapiens, UniProt P01106).
T2 construct: endogenous in cells; host or cells: L363
T2 sequence (P01106 whole entry): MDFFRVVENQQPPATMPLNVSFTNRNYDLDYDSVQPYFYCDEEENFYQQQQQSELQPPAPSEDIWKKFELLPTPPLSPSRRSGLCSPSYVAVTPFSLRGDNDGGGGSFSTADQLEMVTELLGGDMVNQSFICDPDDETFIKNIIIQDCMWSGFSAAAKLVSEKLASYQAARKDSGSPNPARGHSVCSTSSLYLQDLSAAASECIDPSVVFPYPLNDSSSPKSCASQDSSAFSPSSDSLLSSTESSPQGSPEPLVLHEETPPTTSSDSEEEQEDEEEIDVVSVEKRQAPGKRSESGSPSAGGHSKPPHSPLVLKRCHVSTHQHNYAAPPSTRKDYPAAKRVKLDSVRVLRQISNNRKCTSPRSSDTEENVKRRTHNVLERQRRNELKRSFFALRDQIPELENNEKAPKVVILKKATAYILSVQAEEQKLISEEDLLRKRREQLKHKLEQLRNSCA
Put plainly: Degradation of MycC protein in L363 cells, JESS/Western blot of lysates. The following applies: L-363, 24 h, L-363 cells, 24 h; for Dmax at 6 µM: read-out: % Degradation of MycC (L-363) 24 h, 6 μM; for Dmax at 3 µM: read-out: % Degradation of MycC (L-363) 24 h, 3 μM; for Dmax at 1 µM: read-out: % Degradation of MycC (L-363) 24 h, 1 μM; for Dmax at 0.5 µM: read-out: % Degradation of MycC (L-363) 24 h, 0.5 μM. It counts as cell-based. As to the method:
as §1, with “Cells were cultured for 24 hrs then treated with exemplary compounds at 0.1, 0.5, 1.0, 3.0 and 6.0 mM final assay concentrations plus DMSO control.” left out
as §2, §3
For SK-N-EB2 adherent cells, 5E5 cells in 1.9 mls media were plated into 6 well dishes and incubated for 24 hrs. […] Cells were scrapped off the plate, centrifuged, washed with PBS, centrifuged, then a RIPA buffer cocktail added to the cells (100 ul), centrifuged and stored at −80 for later analysis. For L363 suspension cells, 1E6 cells were plated into […] (950 ul media) and incubated for 24 hrs. […] Cells were aspirated into tubes, centrifuged, washed with PBS, centrifuged, then a RIPA buffer cocktail added to the cells (100 ul), centrifuged and stored at −80 for later analysis.
as §4

Regarding `c1cc(Nc2cc(C3CCCC3)[nH]n2)nc(N2CC3(CN4CCCC4)CC2C3)n1` [Compound 75, N-(5-Cyclopentyl-1H-pyrazol-3-yl)-2-[4-(pyrrolidin-1-ylmethyl)-2-azabicyclo[2.1.1]hexan-2-yl]pyrimidin-4-amine], in assay [1], the Dmax at 0.5 µM lay in the range of 20 to 49%, the Dmax at 1 µM was 20 to 49%, the Dmax at 3 µM lay within 50 to 79% and the Dmax at 6 µM fell in the range of 80 to 100%. In assay [2], the Dmax at 6 µM was 50 to 79%.
`CN(C)CCCNc1nccc(Nc2cc(C3CC3)[nH]n2)n1` [Compound 20, N4-(5-Cyclopropyl-1H-pyrazol-3-yl)-N2-[3-(dimethylamino)propyl]pyrimidine-2,4-diamine]: in assay [1], the Dmax at 0.5 µM is < 20%, the Dmax at 1 µM is < 20%, the Dmax at 3 µM lay within 20 to 49% and the Dmax at 6 µM lay within 50 to 79%. Moreover, the Dmax at 6 µM in assay [2] was < 20%.
For the compound `NC[C@H]1CCN(c2nccc(Nc3cc(C4CC4)[nH]n3)n2)C1` [Compound 11, (R)-2-(3-(Aminomethyl)pyrrolidin-1-yl)-N-(5-cyclopropyl-1H-pyrazol-3-yl)pyrimidin-4-amine], in assay [1], the Dmax at 0.5 µM was < 20%, the Dmax at 1 µM was in the range of 80 to 100%, the Dmax at 3 µM lay within 80 to 100% and the Dmax at 6 µM fell in the range of 80 to 100%. In assay [2], the Dmax at 3 µM was < 20%.
For `CNC[C@H]1CN(c2nccc(Nc3cc(C4CC4)[nH]n3)n2)C[C@H]1F` [Compound 191, N-(5-Cyclopropyl-1H-pyrazol-3-yl)-2-[(3S,4S)-3-fluoro-4-(methylaminomethyl)pyrrolidin-1-yl]pyrimidin-4-amine], in assay [1], the Dmax at 0.5 µM was < 20%, the Dmax at 1 µM lay in the range of 20 to 49%, the Dmax at 3 µM was 80 to 100% and the Dmax at 6 µM was in the range of 80 to 100%. In assay [2], the Dmax at 1 µM is < 20%, the Dmax at 3 µM was in the range of 50 to 79% and the Dmax at 6 µM was in the range of 80 to 100%.
As for `c1cc(Nc2cc(C3CC3)[nH]n2)nc(N2C[C@H]3CNC[C@@H]3C2)n1` (racemic) [Compound 50, N-(5-Cyclopropyl-1H-pyrazol-3-yl)-2-[rac-(3aR,6aR)-2,3,3a,4,6,6a-hexahydro-1H-pyrrolo[3,4-c]pyrrol-5-yl]pyrimidin-4-amine], in assay [1], the Dmax at 0.5 µM fell in the range of 20 to 49%, the Dmax at 1 µM was 20 to 49%, the Dmax at 3 µM fell in the range of 50 to 79% and the Dmax at 6 µM was 80 to 100%. Besides, in assay [2], the Dmax at 0.5 µM fell in the range of 20 to 49%, the Dmax at 1 µM is < 20%, the Dmax at 3 µM fell in the range of 20 to 49% and the Dmax at 6 µM fell in the range of 50 to 79%.
As for `CN1CC2(CCN(c3nccc(Nc4cc(C5CC5)[nH]n4)n3)CC2)C1` [Compound 44, N-(5-Cyclopropyl-1H-pyrazol-3-yl)-2-(2-methyl-2,7-diazaspiro[3.5]nonan-7-yl)pyrimidin-4-amine], in assay [1], the Dmax at 1 µM was < 20%, the Dmax at 3 µM lay within 20 to 49% and the Dmax at 6 µM fell in the range of 80 to 100%. For the same compound, in assay [2], the Dmax at 3 µM was < 20% and the Dmax at 6 µM fell in the range of 80 to 100%.
For the compound `NCC12CCC(C1)N(c1nccc(Nc3cc(C4CC4)[nH]n3)n1)C2` (stereo not shown) [Compound 113, 2-[4-(Aminomethyl)-2-azabicyclo[2.2.1]heptan-2-yl]-N-(5-cyclopropyl-1H-pyrazol-3-yl)pyrimidin-4-amine], in assay [1], the Dmax at 0.5 µM fell in the range of 80 to 100%, the Dmax at 1 µM lay within 80 to 100%, the Dmax at 3 µM is 80 to 100% and the Dmax at 6 µM is 80 to 100%. Moreover, in assay [2], the Dmax at 0.5 µM lay within 80 to 100%, the Dmax at 1 µM was in the range of 80 to 100%, the Dmax at 3 µM was 80 to 100% and the Dmax at 6 µM was in the range of 80 to 100%.
As for `O=C1c2ccccc2C(=O)N1CC12CC(CN(c3nccc(Nc4cc(C5CC5)[nH]n4)n3)C1)C2` [Compound 126, 2-[[3-[4-[(5-Cyclopropyl-1H-pyrazol-3-yl)amino]pyrimidin-2-yl]-3-azabicyclo[3.1.1]heptan-1-yl]methyl]isoindoline-1,3-dione], in assay [1], the Dmax at 0.5 µM lay in the range of 80 to 100%, the Dmax at 1 µM is 80 to 100%, the Dmax at 3 µM fell in the range of 80 to 100% and the Dmax at 6 µM was in the range of 80 to 100%. Also, in assay [2], the Dmax at 0.5 µM was 80 to 100%, the Dmax at 1 µM fell in the range of 80 to 100%, the Dmax at 3 µM lay in the range of 80 to 100% and the Dmax at 6 µM lay within 80 to 100%.
For the compound `NC[C@H]1CCN(c2nccc(Nc3cc(C4CCCC4)[nH]n3)n2)C1` [Compound 23, 2-[(3R)-3-(aminomethyl)pyrrolidin-1-yl]-N-(5-cyclopentyl-1H-pyrazol-3-yl)pyrimidin-4-amine], in assay [1], the Dmax at 0.5 µM is 20 to 49%, the Dmax at 1 µM was 50 to 79%, the Dmax at 3 µM was in the range of 80 to 100% and the Dmax at 6 µM is 80 to 100%. In assay [2], the Dmax at 3 µM was 80 to 100% and the Dmax at 6 µM is 80 to 100%.
For `NC[C@@H]1CN(c2nccc(Nc3cc(C4CCCC4)[nH]n3)n2)C[C@@H]1F` [Compound 123-1, 2-[(3R,4R)-3-(Aminomethyl)-4-fluoro-pyrrolidin-1-yl]-N-(5-cyclopentyl-1H-pyrazol-3-yl)pyrimidin-4-amine], in assay [1], the Dmax at 1 µM was < 20%, the Dmax at 3 µM is 50 to 79% and the Dmax at 6 µM was in the range of 80 to 100%. Further, in assay [2], the Dmax at 0.5 µM was < 20%, the Dmax at 1 µM was 20 to 49%, the Dmax at 3 µM was in the range of 80 to 100% and the Dmax at 6 µM was in the range of 80 to 100%.
